From ChEMBL document CHEMBL1201862, “PubChem BioAssay data set” (2004)
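The compound was tested at five concentrations on cells cultured in 96-well plates, with a 48-hour exposure period. Here, GI50 denotes the concentration required for 50% inhibition of growth.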 Active and inactive are the calls of the source. No stated cut-off is given here; in the data, active = GI50 up to about 1.1 µM and inactive = higher.

What was measured:
Experiment in all cases: NCI-60 cell line screen, 48 h
MDA-MB-435 = test system: MDA-MB-435
LOX IMVI = test system: LOX IMVI
CCRF-CEM = test system: CCRF-CEM
SNB-75 = test system: SNB-75
K562 = test system: K562
HCT-15 = test system: HCT-15
Hs-578T = test system: Hs-578T
EKVX = test system: EKVX
OVCAR-4 = test system: OVCAR-4
SF-539 = test system: SF-539
MCF7 = test system: MCF7
A498 = test system: A498
A549 = test system: A549
Malme-3M = test system: Malme-3M
SF-268 = test system: SF-268
OVCAR-5 = test system: OVCAR-5
SN12C = test system: SN12C
U-251 = test system: U-251
HCT-116 = test system: HCT-116

Structure (SMILES) | GI50 (MDA-MB-435) | GI50 (LOX IMVI) | GI50 (CCRF-CEM) | GI50 (SNB-75) | GI50 (K562) | GI50 (HCT-15) [µM] | GI50 (Hs-578T) | GI50 (EKVX) | GI50 (OVCAR-4) | GI50 (SF-539) | GI50 (MCF7) | GI50 (A498) | GI50 (A549) | GI50 (Malme-3M) | GI50 (SF-268) | GI50 (OVCAR-5) | GI50 (SN12C) | GI50 (U-251) | GI50 (HCT-116)
CCOc1cc2c(c(OCC)c1O)CC[C@@H]1[C@@H]2CC[C@]2(C)[C@@H](O)CC[C@@H]12 | 0.203 µM (active) | 2.23 µM (inactive) | 1.7 µM (inactive) | 0.587 µM (active) | 0.329 µM (active) | 0.289 | 4.68 µM (inactive) | 6.1 µM (inactive) | 51.8 µM (inactive) | 1.48 µM (inactive) | 0.505 µM (active) | 5.21 µM (inactive) | 7.11 µM (inactive) | 2.29 µM (inactive) | 4.79 µM (inactive) | 10.7 µM (inactive) |  |  | 
COC1CC(O[C@H]2CC[C@@]3(C)[C@@H](CC[C@]4(O)[C@@H]3CC[C@]3(C)[C@@H](C(C)=O)[C@H](OC(=O)CC(C)C)[C@@H](OC(=O)c5ccccc5)[C@@]34O)C2)OC(C)C1OC1CC(OC)C(OC2OC(C)C(O)C(OC)C2O)C(C)O1 (stereo partly specified) | 12.2 µM (inactive) | 15.9 µM (inactive) | 17.8 µM (inactive) | 11.9 µM (inactive) | 11 µM (inactive) | 9.95 | 8.09 µM (inactive) | 9.68 µM (inactive) | 19.1 µM (inactive) | > 25 µM (inactive) | 11.4 µM (inactive) | > 25 µM (inactive) | 7.89 µM (inactive) | 18.5 µM (inactive) | > 25 µM (inactive) | > 25 µM (inactive) | > 25 µM (inactive) | 18 µM (inactive) | 10.4 µM (inactive)
Cc1ccc(C2=CC(=O)/C(=C\C(=O)c3ccc(Cl)cc3)O2)cc1 | 18 µM (inactive) | 1.43 µM (inactive) | 3.19 µM (inactive) | 35.8 µM (inactive) | 4.15 µM (inactive) | 17.7 | 23.9 µM (inactive) | 70 µM (inactive) | 15.9 µM (inactive) | 21.2 µM (inactive) | 10.6 µM (inactive) | 27.2 µM (inactive) |  | 17.2 µM (inactive) | 17.1 µM (inactive) | 21.1 µM (inactive) |  | 17.7 µM (inactive) | 14.3 µM (inactive)
O=C(O)CSCc1cccc2ccccc12 | > 100 µM (inactive) | > 100 µM (inactive) | > 100 µM (inactive) | > 100 µM (inactive) | > 100 µM (inactive) | > 100 | > 100 µM (inactive) | 19.4 µM (inactive) | > 100 µM (inactive) | > 100 µM (inactive) | > 100 µM (inactive) | > 100 µM (inactive) | > 100 µM (inactive) | > 100 µM (inactive) | > 100 µM (inactive) | > 100 µM (inactive) | > 100 µM (inactive) | > 100 µM (inactive) | > 100 µM (inactive)
C=C1CC[C@@H]2[C@](C)(COC(=O)CCC(=O)O)CCC[C@@]2(C)[C@@H]1CCC1=CC(=O)OC1 | > 100 µM (inactive) | > 100 µM (inactive) | > 100 µM (inactive) | > 100 µM (inactive) | > 100 µM (inactive) | > 100 | > 100 µM (inactive) | > 100 µM (inactive) | > 100 µM (inactive) | > 100 µM (inactive) | > 100 µM (inactive) | > 100 µM (inactive) | > 100 µM (inactive) | > 100 µM (inactive) | > 100 µM (inactive) | > 100 µM (inactive) | > 100 µM (inactive) | > 100 µM (inactive) | > 100 µM (inactive)
Cc1cc(SCC(=O)c2ccccc2)nc2ccccc12 | > 100 µM (inactive) | > 100 µM (inactive) |  | 36.7 µM (inactive) | > 100 µM (inactive) | > 100 | < 0.01 µM (active) | 8.11 µM (inactive) | > 100 µM (inactive) | > 100 µM (inactive) | > 100 µM (inactive) | > 100 µM (inactive) | 67.1 µM (inactive) | > 100 µM (inactive) | 55.8 µM (inactive) | 72.9 µM (inactive) | > 100 µM (inactive) | > 100 µM (inactive) | > 100 µM (inactive)
CC1CCC2c3c([nH]c4ccccc34)C3C(=O)N(C4CCCCC4)C(=O)C3C2C1 (stereo unspecified) | 55.3 µM (inactive) | 52.5 µM (inactive) | 57.7 µM (inactive) | 2.78 µM (inactive) | 19 µM (inactive) | 49.8 | 13 µM (inactive) | 14.8 µM (inactive) |  | 21.9 µM (inactive) | > 10 µM (inactive) | 22 µM (inactive) | 19.1 µM (inactive) | 29.3 µM (inactive) | 13.6 µM (inactive) | 18.5 µM (inactive) | 22.9 µM (inactive) | 12.7 µM (inactive) | 11.9 µM (inactive)
CCN(CCCl)c1cc(CN(C)C)cc(NC(=O)c2ccc(C(=O)Nc3cccc(CN(C)C)c3)cc2)c1 | 0.238 µM (active) | 0.201 µM (active) | 0.0708 µM (active) | 0.695 µM (active) | 0.321 µM (active) | 32.4 | 0.23 µM (active) |  | 0.607 µM (active) | 0.457 µM (active) | 0.11 µM (active) | 2.65 µM (inactive) | 2.2 µM (inactive) | 1.31 µM (inactive) | 0.364 µM (active) | 10.6 µM (inactive) | 0.357 µM (active) | 0.225 µM (active) | 0.51 µM (active)
O=C1CC(c2ccccc2Cl)C2(C(=O)NC(=S)NC2=O)C(c2ccccc2Cl)C1 (stereo unspecified) | 14.3 µM (inactive) | 16.9 µM (inactive) | 35.6 µM (inactive) | 69.8 µM (inactive) | 37.2 µM (inactive) | 21.1 | 0.465 µM (active) | 37.6 µM (inactive) | 52 µM (inactive) | 58.7 µM (inactive) | 18.3 µM (inactive) | 21.4 µM (inactive) | 20.8 µM (inactive) | 1.56 µM (inactive) | 19 µM (inactive) | 42.1 µM (inactive) | 25.9 µM (inactive) | 15.3 µM (inactive) | 20 µM (inactive)
Oc1ccc(Cl)cc1-c1nc(S)nc(-c2ccccc2)c1Cl | > 100 µM (inactive) | > 56.9 µM (inactive) | > 100 µM (inactive) | 18.9 µM (inactive) | > 100 µM (inactive) | > 100 | 22.9 µM (inactive) |  | > 100 µM (inactive) | > 10 µM (inactive) | > 100 µM (inactive) | 51.9 µM (inactive) | > 100 µM (inactive) | > 100 µM (inactive) | > 64.3 µM (inactive) | > 100 µM (inactive) | > 100 µM (inactive) | 43.2 µM (inactive) | > 96.4 µM (inactive)
CCC(=O)COc1ccc(NC(NC(=O)C(C(F)(F)F)C(F)(F)F)(C(F)(F)F)C(F)(F)F)cc1 | 42.7 µM (inactive) | 28.6 µM (inactive) | 22.3 µM (inactive) | 23.7 µM (inactive) |  | 27.5 | 31 µM (inactive) | 49.2 µM (inactive) | 35.6 µM (inactive) | 25.3 µM (inactive) | 27.2 µM (inactive) | 60.4 µM (inactive) | 54.5 µM (inactive) | 27 µM (inactive) | 27.9 µM (inactive) | 46.8 µM (inactive) | > 10 µM (inactive) | 46.7 µM (inactive) | 20.6 µM (inactive)
C=C(C)C(=O)O[C@H]1C/C(CO)=C/CCC(=C)C(OC(C)=O)[C@H]2OC(=O)C(=C)[C@H]12 (stereo partly specified) | 4.61 µM (inactive) | 4.12 µM (inactive) | 1.6 µM (inactive) | 2.35 µM (inactive) | 2.44 µM (inactive) | 2.3 | 12.2 µM (inactive) | > 10 µM (inactive) |  | 13.6 µM (inactive) | 4.39 µM (inactive) | 18.7 µM (inactive) | 19.1 µM (inactive) | 3.96 µM (inactive) | 2 µM (inactive) | 38.5 µM (inactive) | 13.4 µM (inactive) | 17.8 µM (inactive) | 3.78 µM (inactive)
O=c1/c(=C/c2ccc(-c3ccc(Cl)cc3Cl)o2)sc2n1[C@@H](c1ccc3c(c1)OCO3)C=C(c1cc(F)c(Cl)cc1Cl)N=2 | 33.2 µM (inactive) | 34.8 µM (inactive) | 38.7 µM (inactive) | > 100 µM (inactive) | 35.2 µM (inactive) | 34.1 | 14 µM (inactive) |  | 33.3 µM (inactive) | 35.3 µM (inactive) | 26 µM (inactive) | 2.26 µM (inactive) | 46.1 µM (inactive) | > 100 µM (inactive) | 46.3 µM (inactive) | 58.7 µM (inactive) | 57.3 µM (inactive) | 29.4 µM (inactive) | 35.4 µM (inactive)
c1ccc(-c2cc(-c3cc(-c4ccccn4)[nH]n3)n[nH]2)nc1 | > 100 µM (inactive) | 94.4 µM (inactive) |  | 69.8 µM (inactive) | 8.45 µM (inactive) | 55.7 | > 100 µM (inactive) | 25.4 µM (inactive) | > 100 µM (inactive) | > 100 µM (inactive) | > 100 µM (inactive) | > 100 µM (inactive) | 75.2 µM (inactive) | > 100 µM (inactive) | > 100 µM (inactive) | > 100 µM (inactive) | 27.6 µM (inactive) | > 100 µM (inactive) | 27.7 µM (inactive)
CCN(CC(O)COc1ccc2c(c1)[n+]([O-])nc(N)[n+]2[O-])C(C)=O (stereo unspecified) | > 100 µM (inactive) | 76.6 µM (inactive) | 72.4 µM (inactive) | 38.9 µM (inactive) | 79.6 µM (inactive) | > 100 | 63 µM (inactive) | > 100 µM (inactive) | 86.5 µM (inactive) | > 100 µM (inactive) | 91 µM (inactive) | 62.1 µM (inactive) | > 100 µM (inactive) |  | 80.5 µM (inactive) | > 100 µM (inactive) | > 100 µM (inactive) | > 100 µM (inactive) | 97.9 µM (inactive)
